Data as given in patent US20070042507A1, “Composite nanoparticles” (priority 2003, published 2007).
“And” between values parts separate entries of the source, which are not always exact repeats. Equal values may be shown once. Read-outs that look alike come from different tables or passages of the source.

How the values were obtained:
[1] = physchem
[2] = n-octanol/water logD by prior art shake-flask method
[3] = physchem; remark: listed apart in the source
[4] = cited from earlier work; for LogD value from literature: n-octanol/water; for logD, Literature Value: pH = 7.4, AstraZeneca in-house data
[5] = n-octanol/water logD with stock solution of n-octanol-charged nanoparticles (SC-CO2 delivery, example 10); details: pH 7.4
Protocol: 30 μL n-octanol was then added into the holder 6 by the use of a micro-pipettor. The autoclave vessel and the sample holder (30 ml in total volume) were charged and flushed with CO2 by opening and closing the valves between the two compartments and external outlets for a few times before the vessels were brought up to the desired pressure (150 bar). The temperature of the autoclave and sample holder was maintained at 40° C., to allow the dispersion of the small quantity of n-octanol into the porous particles. After 2 hours, the high pressure of the system was released to atmosphere very slowly.
An appropriate amount of n-octanol was added to provide a thin n-octanol layer covering the water phase (density of n-octanol is lower than water). The funnel was shaken for 5 to 10 minutes to allow mixing of the n-octanol with water. The funnel was then covered by aluminium foil to protect the solvent mixture from light degradation and evaporation. The funnel was placed in an upright position for 3 days to allow separation of the two phases. The n-octanol phase saturated with water was then collected.
The particles containing nanocomposite were dispersed into 5 mL of this saturated buffer solution to obtain a homogeneous stock-solution with a concentration of 0.0038 mL n-octanol per mL of solution. Partition coefficient measurements were carried out as described below, using such a stock solution prepared in the same way.
After shaking the mixed system for half an hour, the magnetic nanocomposites were precipitated in a few minutes by an external magnet placed near the bottom of the reactor-tube. UV-visible spectrophotometry was used to determine the absorption of analyte at the aqueous phase both before and after partitioning.
For the partition coefficient determination, stock solutions were prepared with a suitable n-octanol/nanoparticle ratio. […]
UV-visible spectrometry was used to quantitatively determine the drug concentration in aqueous phase before and after partitioning. […]

[6] = pH 7.4, LogD value measured by present invention (pH = 7.4), single measurements, water:n-octanol 100:1
[7] = pH 7.4, Mean logD value measured by present invention (pH = 7.4), mean of five, water:n-octanol 100:1
[8] = n-octanol/water, pH 7.4, LogD value measured (Prior art method) (pH = 7.4), single measurements, water:n-octanol 100:1
[9] = n-octanol/water, pH 7.4, Mean logD value measured (Prior art method) (ph = 7.4), mean of five, water:n-octanol 100:1
[10] = pH 7.4, logD, Magnetic nano-composite method, water/n-octanol 100, average of at least five, confidence level 95%
[11] = single measurements, water:n-octanol 100:1
[12] = pH 7.4, LogD value measured (Prior art method) (pH = 7.4), single measurements, water:n-octanol 100:1
[13] = pH 7.4, Mean logD value measured (Prior art method) (ph = 7.4), mean of five, water:n-octanol 100:1
[14] = n-octanol/water, pH 7.4, logD, Shake-Flask Method, water/n-octanol 100, average of at least five, confidence level 95%

SMILES	logD [6]	logD [2, 8]	logD [2, 9]	logD [10]	LogD value measured (Prior art method) (pH = 7.4) [2, 11]	logD [5]	logD [2, 14]	logD [7]	LogD value measured by present invention (pH = 7.4) (single measurements, water:n-octanol 100:1, listed as 4-Nitroansiole)	logD ([1]; pH 7.4, LogD value measured (Prior art method) (pH = 7.4))	logD ([1]; pH 7.4, logD, Shake-Flask Method)	logD ([3]; pH 7.4, LogD value measured by present invention (pH = 7.4))	logD ([3]; pH 7.4, logD, Magnetic nano-composite method)	LogD value from literature [4]	logD, Literature Value [4]	logD [2, 12]	logD [2, 13]	logD ([2]; pH 7.4, logD, Shake-Flask Method, water/n-octanol 100, average of at least five, confidence level 95%)	LogD value measured by present invention (pH = 7.4) [11]
COc1ccc([N+](=O)[O-])cc1 [4-Nitroanisole]	2.01	2.01	2.01 ± 0.0077	–	–	–	–	2.013 ± 0.012	2.023 and 2.002	2.02	2.01 ± 0.008	2.01	2.013 ± 0.012	–	–	–	–	–	–
O=[N+]([O-])c1ccc(O)cc1 [4-Nitrophenol]	1.81	–	–	1.49 ± 0.021	1.779 and 1.811 and 1.780	1.45 ± 0.026	–	1.807 ± 0.0052	–	–	–	–	–	1.480	1.480	1.77	1.78 ± 0.019	1.486 ± 0.009	–
Nc1ccccc1 [Aniline]	0.963	–	–	–	0.945 and 0.929 and 0.926 and 0.932	–	–	0.973 ± 0.0303	–	–	–	–	–	0.900	–	0.936	0.934 ± 0.0094	–	0.990 and 0.935 and 0.989
NC(=O)c1ccccc1 [Benzamide]	0.0639	–	–	–	–	–	–	–	–	–	–	–	–	–	–	–	–	–	–
c1ccc2ncccc2c1 [Quinoline]	2.19	2.12	2.116 ± 0.0039	2.186 ± 0.004	2.115 and 2.113 and 2.121 and 2.114	2.08 ± 0.073	2.116 ± 0.004	2.186 ± 0.0044	–	–	–	–	–	2.020	2.020	–	–	–	–

Continued, in another order:

logD [6]	logD [2, 8]	logD [2, 9]	logD [10]	LogD value measured (Prior art method) (pH = 7.4) [2, 11]	logD [5]	logD [2, 14]	SMILES	logD [7]	LogD value measured by present invention (pH = 7.4) (single measurements, water:n-octanol 100:1, listed as 4-Nitroansiole)	logD ([1]; pH 7.4, LogD value measured (Prior art method) (pH = 7.4))	logD ([1]; pH 7.4, logD, Shake-Flask Method)	logD ([3]; pH 7.4, LogD value measured by present invention (pH = 7.4))	logD ([3]; pH 7.4, logD, Magnetic nano-composite method)	LogD value from literature [4]	logD, Literature Value [4]	logD [2, 12]	logD [2, 13]	logD ([2]; pH 7.4, logD, Shake-Flask Method, water/n-octanol 100, average of at least five, confidence level 95%)	LogD value measured by present invention (pH = 7.4) [11]
1.27	1.25	–	1.27 ± 0.038	1.264 and 1.244 and 1.256	–	–	O=[N+]([O-])c1ccc(CO)cc1 [4-Nitrobenzyl alcohol]	1.27 ± 0.0381	–	–	–	–	–	1.260	1.260	–	–	–	–
3.14	3.08	3.076 ± 0.0047	3.164 ± 0.011	3.074 and 3.083	3.17 ± 0.448	3.076 ± 0.005	CN(C)CCCN1c2ccccc2Sc2ccc(Cl)cc21 [Chlorpromazine]	3.164 ± 0.0111	–	–	–	–	–	3.200	3.200	–	–	–	3.179 and 3.186 and 3.124
